Assay results published in the Deep4Chem optical property database.
Values joined by “and” are separate entries in the source; they are usually repeats but may differ in a detail not shown here. Identical values can stand only once.

Assay: photoluminescence quantum yield (fraction); solvent given as SMILES
[1] = in c1cc(-c2cccc(-n3c4ccccc4c4ccccc43)c2)cc(-n2c3ccccc3c3ccccc32)c1

Cc1cc(-n2c3ccccc3c3ccccc32)c(-n2c3ccccc3c3ccccc32)cc1C#N
photoluminescence quantum yield [1]: 0.89 | photoluminescence quantum yield (in c1ccc2c(c1)c1ccccc1n2-c1ccc2sc3ccc(-n4c5ccccc5c5ccccc54)cc3c2c1): 0.841 | photoluminescence quantum yield (in c1ccc2c(c1)c1ccccc1n2-c1ccc2sc3ccc(-n4c5ccccc5c5cccnc54)cc3c2c1): 0.982 | photoluminescence quantum yield (in c1ccc2c(c1)c1cccnc1n2-c1ccc2sc3ccc(-n4c5ccccc5c5cccnc54)cc3c2c1): 0.879

COc1ccc(CCNC(=O)c2sc(-c3ccc(-c4cc(-c5ccc(C(C)(C)C)cc5)c(C(=O)NCCc5ccc(OC)c(OC)c5)s4)s3)cc2-c2ccc(C(C)(C)C)cc2)cc1OC
photoluminescence quantum yield (in ClCCl): 0.27

COC(=O)C(N)Cc1ccc(O[Si]2(Oc3ccc(CC(N)C(=O)OC)cc3)n3c4c5ccccc5c3/N=C3N=C(/N=c5/c6ccccc6/c(n52)=N/C2=NC(=N\4)/c4ccccc42)c2ccccc2\3)cc1 (stereo not drawn)
photoluminescence quantum yield (in CN(C)C=O): 0.12

N#Cc1cc(-n2c3ccccc3c3cccnc32)c(-n2c3ccccc3c3cccnc32)cc1C#N
photoluminescence quantum yield (in c1cc(-n2c3ccccc3c3ccccc32)cc(-n2c3ccccc3c3ccccc32)c1): 0.37

N#Cc1ccc(/C=C/c2ccc(C=C(c3ccccc3)c3ccccc3)cc2)cc1
photoluminescence quantum yield (in C1CCOC1): 0.166

C(#Cc1ccc2ncsc2c1)c1ccc(N(c2ccccc2)c2ccccc2)cc1
photoluminescence quantum yield (in Cc1ccccc1): 0.23

CC(=O)c1nc(-c2ccc(N(c3ccccc3)c3ccccc3)cc2)oc1C
photoluminescence quantum yield (in CC#N): 0.486 | photoluminescence quantum yield (in CCO): 0.264 | photoluminescence quantum yield (in CCOC(C)=O): 0.659 | photoluminescence quantum yield (in CCOCC): 0.886 | photoluminescence quantum yield (in ClCCl): 0.972

Cc1c(C(=O)c2ccccc2)c2ccc3cccc4c5cccc6ccc1c(c65)c2c34
photoluminescence quantum yield (in ClCCl): 0.02

COc1ccc(-c2ccc3c(c2)[Si](C)(C)c2cc(-c4ccc(OC)cc4)ccc2C=C3)cc1
photoluminescence quantum yield (in ClCCl): 0.93

CC1(C)c2ccccc2N(c2ccc3c(c2)Oc2ccccc2P3(=O)c2ccccc2)c2ccccc21 (stereo not drawn)
photoluminescence quantum yield (in Cc1ccccc1): 0.37 | photoluminescence quantum yield (in O=P(c1ccccc1)(c1ccccc1)c1ccccc1Oc1ccccc1P(=O)(c1ccccc1)c1ccccc1): 0.62

CCC1=C(C)C2=Cc3cc(I)cn3[B-](F)(F)[N+]2=C1C
photoluminescence quantum yield (in C1CCCCC1): 0.113 | photoluminescence quantum yield (in CC(C)=O): 0.063 | photoluminescence quantum yield (in CCO): 0.07 | photoluminescence quantum yield (in CCOC(C)=O): 0.078 | photoluminescence quantum yield (in CO): 0.069 | photoluminescence quantum yield (in OCC(F)(F)F): 0.05

COC(=O)c1cc(=O)n(C)c2cc(-c3ccc4c(c3)OCCO4)sc12
photoluminescence quantum yield (in CC#N): 0.68 | photoluminescence quantum yield (in ClCCl): 0.83

CCN(CC)c1ccc2c(-c3ccccc3C(=O)[O-])c3ccc(=[N+](CC)CC)cc-3oc2c1
photoluminescence quantum yield (in CC#N): 0.4 | photoluminescence quantum yield (in CCO): 0.66 | photoluminescence quantum yield (in CN(C)C=O): 0.42 | photoluminescence quantum yield (in CO): 0.7 | photoluminescence quantum yield (in O): 0.36 and 0.31

C(=C\c1cc(/C=C/c2ccc(N(c3ccccc3)c3ccccc3)cc2)nc(/C=C/c2ccc(N(c3ccccc3)c3ccccc3)cc2)n1)/c1ccc(N(c2ccccc2)c2ccccc2)cc1
photoluminescence quantum yield (in ClCCl): 0.56

Nc1ccc2c(c1)C(=O)c1ccc(N)cc1C2=O
photoluminescence quantum yield (in CC#N): 0.016 | photoluminescence quantum yield (in CC(C)O): 0.008 | photoluminescence quantum yield (in CCO): 0.0007 | photoluminescence quantum yield (in CCOC(C)=O): 0.028 | photoluminescence quantum yield (in CO): 0.0002

N#CC1=CC=CC(C#N)=P1(c1ccccc1)c1ccccc1
photoluminescence quantum yield (in ClC(Cl)Cl): 0.92

CCCCCCCCC1(CCCCCCCC)c2ccccc2-c2ccc(-c3nnc(-c4cccc(-n5c6ccc(C(C)(C)C)cc6c6cc(C(C)(C)C)ccc65)c4)o3)cc21
photoluminescence quantum yield (in Cc1ccccc1): 0.13

Cc1cc(C2=C(c3c(C)sc(-c4ccc(-c5nc(-c6ccccc6)c(-c6ccccc6)[nH]5)cc4)c3C)C(F)(F)C(F)(F)C2(F)F)c(C)s1
photoluminescence quantum yield (in C1CCOC1): 0.077

O=C1/C(=C2\Sc3ccc(S(=O)(=O)Nc4ccccc4)cc3C2=O)Sc2ccc(S(=O)(=O)Nc3ccccc3)cc21
photoluminescence quantum yield (in C1COCCO1): 0.358 | photoluminescence quantum yield (in CN(C)C=O): 0.018 | photoluminescence quantum yield (in CO): 0.006 | photoluminescence quantum yield (in CS(C)=O): 0.004

CN(C)c1ccc(C#Cc2ccc(C=O)cc2)cc1
photoluminescence quantum yield (in C1CCCCC1): 0.363 | photoluminescence quantum yield (in C1CCOC1): 0.131 | photoluminescence quantum yield (in C1COCCO1): 0.254 | photoluminescence quantum yield (in CC1CCCO1): 0.223 | photoluminescence quantum yield (in CC#N): 0.012 | photoluminescence quantum yield (in CC(C)=O): 0.047 | photoluminescence quantum yield (in CC(C)CC(C)(C)C): 0.044 | photoluminescence quantum yield (in CC(C)O): 0.017 | photoluminescence quantum yield (in CCCCCCCCCCCCCCCC): 0.056 | photoluminescence quantum yield (in CCCCCCCCCCCCCCCCCl): 0.093 | photoluminescence quantum yield (in CCOC(C)=O): 0.174 | photoluminescence quantum yield (in CCOCC): 0.201 | photoluminescence quantum yield (in CN(C)C=O): 0.046 | photoluminescence quantum yield (in CO): 0.006 | photoluminescence quantum yield (in CS(C)=O): 0.037 | photoluminescence quantum yield (in Cc1ccccc1): 0.337

Cc1ccc(C2=C3C=CC([Se]c4ccccc4)=[N+]3[B-](F)(F)n3c([Se]c4ccccc4)ccc32)cc1
photoluminescence quantum yield (in C1CCOC1): 0.56

c1ccc(-c2nc(-c3ccccc3)nc(-c3ccc(-c4ccc5c(c4)[Si](c4ccccc4)(c4ccccc4)c4cc(-c6ccc(-c7nc(-c8ccccc8)nc(-c8ccccc8)n7)cc6)ccc4N5c4ccccc4)cc3)n2)cc1
photoluminescence quantum yield [1]: 0.96

CCCCc1cc2cccc[n+]2[b-]2ccc(-c3cc[b-]4c(c3)c(CCCC)cc3cccc[n+]43)cc21
photoluminescence quantum yield (in C1CCCCC1): 0.05

COC(=O)C1=C(C(=O)OC)C2(c3ccccc3-c3ccccc32)[C@@H](c2ccccc2)C=C2c3cc(OC)c(OC)cc3CCN21
photoluminescence quantum yield (in ClCCl): 0.00354

Cc1nc(-c2cc(C(F)(F)F)ccc2O)n2c1CCCC2
photoluminescence quantum yield (in ClCCl): 0.61

CC(C)(C)c1ccc(C2=C(c3ccc(N4c5ccccc5C(C)(C)c5ccccc54)cc3)S(=O)(=O)c3c2sc(-c2ccc(N4c5ccccc5C(C)(C)c5ccccc54)cc2)c3-c2ccc(C(C)(C)C)cc2)cc1
photoluminescence quantum yield (in C1CCOC1): 0.021

F[B-]1(F)n2c(ccc2-c2ccccc2)C(C(F)(F)F)=C2C=CC(c3ccccc3)=[N+]21
photoluminescence quantum yield (in CCCCCC): 0.74

CC(C)(C)c1ccc(-c2c3c(c(-c4ccc(C(C)(C)C)cc4)c4cc5ccccc5cc24)Cc2c(c(-c4ccc(C(C)(C)C)cc4)c4cc5ccccc5cc4c2-c2ccc(C(C)(C)C)cc2)C3)cc1
photoluminescence quantum yield (in ClCCl): 0.15

C/C(=N\Nc1ccc(C#N)cc1)c1ccccn1
photoluminescence quantum yield (in CO): 0.28

O=C(c1ccc(N(c2ccccc2)c2ccccc2)cc1)[C@H]1[C@H](c2ccc(F)cc2)C[C@](O)(c2ccccn2)C[C@]1(O)c1ccccn1
photoluminescence quantum yield (in C1CCOC1): 0.4 | photoluminescence quantum yield (in CC#N): 0.02 | photoluminescence quantum yield (in CCO): 0.01 | photoluminescence quantum yield (in CCOC(C)=O): 0.34 | photoluminescence quantum yield (in CN(C)C=O): 0.02 | photoluminescence quantum yield (in ClCCl): 0.21 | photoluminescence quantum yield (in c1ccccc1): 0.74

F[B-]1(F)OC(c2ccc3c(c2)Cc2ccccc2-3)=CC(c2ccccc2)=[O+]1
photoluminescence quantum yield (in CC#N): 0.96

O=P1(c2ccccc2)C(c2cc(C(F)(F)F)cc(C(F)(F)F)c2)=Cc2c3ccc4cccc5ccc(c6cc(-c7ccccc7)n1c26)c3c45 (stereo not drawn)
photoluminescence quantum yield (in C1CCCCC1): 0.54 | photoluminescence quantum yield (in C1CCOC1): 0.61 | photoluminescence quantum yield (in C1COCCO1): 0.62 | photoluminescence quantum yield (in CC#N): 0.63 | photoluminescence quantum yield (in CC(C)=O): 0.64 | photoluminescence quantum yield (in CO): 0.65 | photoluminescence quantum yield (in Cc1ccccc1): 0.66 | photoluminescence quantum yield (in ClC(Cl)Cl): 0.6 | photoluminescence quantum yield (in ClCCl): 0.61

N#Cc1c(N2CCCCC2)cc(-c2cccs2)c2c1CCc1ccccc1-2
photoluminescence quantum yield (in C1CCOC1): 0.21

N#Cc1c(-n2c3ccccc3c3ccccc32)c(-n2c3ccccc3c3ccccc32)c(C#N)c(-n2c3ccccc3c3ccccc32)c1-n1c2ccccc2c2ccccc21
photoluminescence quantum yield (in Cc1ccccc1): 0.716 and 0.72

CCOC(=O)C1=C(N)n2c(=O)c3ccccc3c(=O)n2C1c1cccs1 (stereo not drawn)
photoluminescence quantum yield (in CS(C)=O): 0.075

CCCCCCCCCCCCOc1ccc(C2=C3C(=O)N(CC(OCC)OCC)C(c4ccc(OCCCCCCCCCCCC)c(OCCCCCCCCCCCC)c4)=C3C(=O)N2CC(OCC)OCC)cc1OCCCCCCCCCCCC
photoluminescence quantum yield (in ClC(Cl)Cl): 0.9

O=c1cc2c(-c3c(O)c4cccc5ccc6oc(=O)cc3c6c54)c(O)c3cccc4ccc(o1)c2c43
photoluminescence quantum yield (in CC1CCCO1): 0.13

Cc1cccc(-c2cnc3ccc4ccccc4n23)c1
photoluminescence quantum yield (in ClCCl): 0.55

COc1cc(OC)c2cc(C#N)c(=N)oc2c1
photoluminescence quantum yield (in ClCCl): 0.047

c1ccc2c(-c3cc(-c4nccs4)nc(-c4nccs4)c3)c3ccccc3cc2c1
photoluminescence quantum yield (in CC#N): 0.134 | photoluminescence quantum yield (in CCCCCC): 0.418 | photoluminescence quantum yield (in CO): 0.0206 | photoluminescence quantum yield (in ClC(Cl)Cl): 0.214

c1cc2ccc3ccc4cc3c2cc1c1ccc2ccc3ccc(cc3c2c1)c1ccc2c(c1)c1cc4ccc1[C@]13OCCO[C@]21OCCO3
photoluminescence quantum yield (in Cc1ccccc1): 0.78

CCN(CC)c1ccc(/C=N/Nc2ccc(C#N)cc2)c(O)c1
photoluminescence quantum yield (in CO): 0.21

CC(C)(C)c1ccc(-c2nc3ccccc3nc2-c2cc(-c3nc4ccccc4nc3-c3ccc(C(C)(C)C)cc3)cc(-n3c4ccccc4c4ccccc43)c2)cc1
photoluminescence quantum yield (in Cc1ccccc1): 0.35

CCn1c2ccccc2c2cc(/C=C/c3cc(/C=C/c4ccc5c(c4)c4ccccc4n5CC)[n+](CCCS(=O)(=O)[O-])c(/C=C/c4ccc5c(c4)c4ccccc4n5CC)c3)ccc21
photoluminescence quantum yield (in C1CCOC1): 0.12 | photoluminescence quantum yield (in CC#N): 0.05 | photoluminescence quantum yield (in CC(C)=O): 0.05 | photoluminescence quantum yield (in Cc1ccccc1): 0.09

CN(C)c1ccc(-c2c(/C=C3/C=Cc4ccccc4N3C)c(=O)c2=O)cc1
photoluminescence quantum yield (in C1CCCCC1): 0.0301 | photoluminescence quantum yield (in Cc1ccccc1): 0.0256 | photoluminescence quantum yield (in ClCCl): 0.001

N#Cc1nn(-c2ccccc2)nc1N1CCCC1
photoluminescence quantum yield (in CC#N): 0.886

COc1cccc(C2=c3c(c4ccc(C(C)(C)C)cc4c4cc(C(C)(C)C)ccc34)=[N+]3C2=C(c2ccccc2)c2c(-c4cccc(OC)c4)c4c5ccc(C(C)(C)C)cc5c5cc(C(C)(C)C)ccc5c4n2[B-]3(F)F)c1
photoluminescence quantum yield (in C1CCCCC1): 0.62 | photoluminescence quantum yield (in C1CCOC1): 0.5 | photoluminescence quantum yield (in CC#N): 0.52 | photoluminescence quantum yield (in Cc1ccccc1): 0.43 | photoluminescence quantum yield (in ClCCl): 0.54

CCOC(=O)CN1C(=O)C2=C(c3ccc(C#N)cc3)N(CC(=O)OCC)C(=O)C2=C1c1ccc(C#N)cc1
photoluminescence quantum yield (in CC#N): 0.32 | photoluminescence quantum yield (in CS(C)=O): 0.72 | photoluminescence quantum yield (in Cc1ccccc1): 0.29

COc1ccc(O)c(C=O)c1
photoluminescence quantum yield (in CO): 0.03

CCN(CC)c1ccc2cc(-c3nc4cc(C(=O)Nc5ccccc5[N+](=O)[O-])ccc4o3)c(=O)oc2c1
photoluminescence quantum yield (in ClCCl): 0.38
